# Data: patent US7034208B1, “Ahas inhibiting herbicide resistant wheat and method for selection thereof” (BASF Aktiengellschaft, priority 1991, dated 2006)
# Assays:
# [1] = test system: M3 wheat plants from selections FS1-FS4 and Fidel; assay: M3 Plant Screen: In vivo (seed soak/preemergence application screen)
# Description: M3 plants from the four initial plant selections (labelled FS1, FS2, FS3 and FS4) are screened for PURSUIT™ resistance. Five M3 seeds from each mature infloresence of these initial M2 mutants are disinfested in 70% EtOH for 30 seconds followed by disinfestation in 50% solution containing 2.625% sodium hypochlorite (as described above) for 20 minutes under vacuum with gentle agitation provided by a stir plate. The seeds are rinsed two times in sterile distilled water.
# Each set of five seeds is then placed into 10 ml of a 1500 uM solution of PURSUIT™ in a sterile 60×15 mm plastic petri dish and soaked for three days. The seeds are rinsed with water, dried with paper towels and planted approximately ½″ deep in 6×8 inch peat flats containing moist, sterile Metro Mix 350™. These flats are sprayed preemergence with 300 g/ha of PURSUIT™. Controls include M3 seeds from each resistant selection which are disinfested as previously described, soaked in sterile distilled water for three days and then planted. In addition, unselected susceptible Fidel wheat is disinfested as described above and one-half of the seeds treated with PURSUIT™ (seed soak and spray procedure) and the other half are soaked in water alone. The herbicide is applied with a laboratory belt sprayer at a rate of 950 L/ha with a belt speed of 12.5 sec/rev using sprayer nozzle #40015E.
# Four weeks after receiving the initial seed soak, the M3 wheat plants are rated according to whether the plants are herbicide resistant, herbicide damaged or dead. The herbicide resistant plants are transplanted individually to 7.5 inch Azalea pots with Metro Mix 350™. A fertilizer, Osmocote™ (Sierra Company, Milpita, Calif.) is added as a top dressing one week after the plants are transplanted. In addition the plants are fertilized regularly with Peter's 20-20-20™ (Grace Company, Cambridge, Mass.). Individual plants are rated against Fidel untreated controls.
# [2] = test system: mutant wheat selections FS1-FS4 and Fidel; type: in vivo; conditions: postemergence
# Excerpt: This greenhouse test examines the level and spectrum of herbicide resistance of the mutant selections at the whole plant level. […] These lines are bulked according to their parental lines: FS1, FS2, FS3 and FS4. Fidel (wild-type) is used is a control and for performance comparison purposes. Five seeds from each of these lines (including Fidel) are planted per pot in six inch Azalea pots and are later thinned to three plants per pot. Three replicates are used per treatment (chemical and rate) for each line, and six replicates per wheat line are used as untreated controls. Plants are sprayed postemergence, 10 days after planting, with the following herbicides and rates: […]
# [3] = test system: testcross progeny Fidel x (Fidel/FS1-FS4); assay: Genetic Condition Studies Experiment 3, testcrosses back to Fidel; type: in vivo, wheat; conditions: out of 49 test-cross progeny sprayed; 200 g/ha; rated three and one-half weeks later
# Excerpt: Experiment 3: Testcrosses of the F1 hybrids (described in Experiment 1) back to Fidel are sprayed with 200 g/ha of PURSUIT™. The following testcrosses are planted in 6 inch azalea pots in Metro Mix 350™. The number of pots planted per cross is indicated by the number after the cross:
# Approximately one month later, the plants are sprayed (except for Fidel). PURSUIT™ (200 g/ha) is applied as previously described. The plants are rated three and one-half weeks later.
# [4] = test system: reciprocally crossed and selfed progeny of mutant wheat selections; assay: Genetic Condition Studies Experiment 2, reciprocal crosses and selfed progeny; type: in vivo; conditions: 200 g/ha postemergence
# Excerpt: Experiment 2: This experiment continues the evaluation of the mutant wheat selections by examining herbicide resistance in reciprocal crossed and selfed material. Reciprocal crosses are made between M3 plants representing each of the original four mutant selections and between these selections and Fidel. Progeny of these crosses as well as selfed progeny of the plants used in the crosses are planted in 6 inch azalea pots in Metro Mix 350™. Ten pots of each cross are planted with two seeds planted per pot. Ten days later, all of the selfed and reciprocally crossed progeny are sprayed postemergence with PURSUIT™ at 200 g/ha. Herbicide treatment is applied as described in Experiment 1. Plants are thinned to one plant per pot (by removing the weaker of the two plants per pot) one week after herbicide treatment. There is 100% germination of seed from the mutant reciprocal crosses and greater than 90% germination of seed from the selfed mutants.
# [5] = test system: F2 progeny of Fidel x FS1-FS4 crosses and Fidel; assay: Genetic Condition Studies Experiment 4, F2 of (Fidel x FS) selfed; type: in vivo, wheat; conditions: 200 g/ha postemergence
# Excerpt: Experiment 4: The resistant wheat selections, FS1-FS4, are crossed to Fidel and the F1 seed from these crosses is selfed. The crosses are as follows: (Fidel×FS1) selfed (Fidel×FS2) selfed (Fidel×FS3) selfed (Fidel×FS4) selfed
# The F2 progeny from these crosses and their susceptible progenitor variety Fidel are planted in flats. Five F2 progenies are used for each of the four crosses. One flat is planted of each progeny for each cross. The flats consist of six rows per flat with 25 seeds per row. The flats are sprayed postemergence with 200 g/ha PURSUIT™ eleven days later. The PURSUIT™ is applied as previously described.
# [6] = Control 2 = Susceptible wheat seed (Fidel) soaked in herbicide solution, three weeks
# [7] = FS1 M3, 1500 uM seed soak + 300 g/ha preemergence, three weeks after herbicide treatment
# [8] = FS2 M3, 1500 uM seed soak + 300 g/ha preemergence, three weeks after herbicide treatment
# [9] = FS3 M3, 1500 uM seed soak + 300 g/ha preemergence, three weeks after herbicide treatment
# [10] = FS4 M3, 1500 uM seed soak + 300 g/ha preemergence, three weeks after herbicide treatment
smiles,measurement,setting,value
"CCc1cnc(C2=NC(C)(C(C)C)C(=O)N2)c(C(=O)O)c1 (centres unmarked) [PURSUIT, 5-ethyl-2-(4-isopropyl-4-methyl-5-oxo-2-imidazolin-2-yl)-nicotinic acid]",No. of Plants (number of plants raised/number of seeds planted),[1]; Control 2 = Susceptible wheat seed (Fidel) soaked in herbicide solution,13/15
same,Ave. Shoot Height,[1]; [6],21.2 cm
same,Range Shoot Heights,[1]; [6],8-30 cm
same,No. of Plants (number of plants raised/number of seeds planted),"[1]; FS1 M3, 1500 uM seed soak + 300 g/ha preemergence",48/80
same,Ave. Shoot Height,[1]; [7],9.1 cm
same,Range Shoot Heights,[1]; [7],2-15 cm
same,germination frequency,"[1]; FS1 M3 seed, 1500 uM seed soak + 300 g/ha preemergence",60%
same,No. of Plants (number of plants raised/number of seeds planted),"[1]; FS2 M3, 1500 uM seed soak + 300 g/ha preemergence",36/80
same,Ave. Shoot Height,[1]; [8],11.7 cm
same,Range Shoot Heights,[1]; [8],5-18 cm
same,germination frequency,"[1]; FS2 M3 seed, 1500 uM seed soak + 300 g/ha preemergence",47.5%
same,No. of Plants (number of plants raised/number of seeds planted),"[1]; FS3 M3, 1500 uM seed soak + 300 g/ha preemergence",35/85
same,Ave. Shoot Height,[1]; [9],8.0 cm
same,Range Shoot Heights,[1]; [9],1-14.5 cm
same,germination frequency,"[1]; FS3 M3 seed, 1500 uM seed soak + 300 g/ha preemergence",41.2%
same,No. of Plants (number of plants raised/number of seeds planted),"[1]; FS4 M3, 1500 uM seed soak + 300 g/ha preemergence",44/85
same,Ave. Shoot Height,[1]; [10],21.1 cm
same,Range Shoot Heights,[1]; [10],5-28 cm
same,germination frequency,"[1]; FS4 M3 seed, 1500 uM seed soak + 300 g/ha preemergence",55%
same,survival,"[1]; non-mutagenized, non-selected Fidel seed, 1500 uM seed soak and 300 g/ha preemergent",does not survive
same,herbicide symptoms,"[1]; some M3 seedlings, progeny of FS4, 1500 uM seed soak + 300 g/ha preemergence","stunting, twisting and/or chlorotic striping"
same,rate to which the mutant wheat is resistant,"[2]; mutant wheat FS1-FS4, plant growth four weeks after treatment",more than 320 g/ha
same,increased tolerance of mutant wheat,"[2]; mutant wheat FS1-FS4 versus Fidel, four weeks after treatment",~8 fold
same,test-cross progeny killed,[3],20
same,test-cross progeny that survive,[3],29
same,damage to mutant crosses,[4],None of the mutant crosses is damaged
same,segregation ratio of F2 progenies,[5]; F2 of each of the four crosses (Fidel x FS1-FS4) selfed,3 (resistant): 1 (susceptible)
same,lethality,[5]; plants heterozygous or homozygous for resistance,non-lethal
same,lethality,[5]; susceptible wheat,lethal to susceptible wheat
